Test in all cases: inhibition of tumour cell growth, NCI panel, 48 h
The test system of test [1] is HCT-15.
The subject of test [2] is SN12C.
For test [3], the system named is NCI-H226.
The test system of test [4] is SK-MEL-28.
Test [5] relates to SW-620.
In test [6] the test system is OVCAR-4.
Test [7] concerns Malme-3M.
The subject of test [8] is HL-60.
Test [9] relates to SK-MEL-5.
In test [10] the test system is RXF 393.
Test [11] deals with NCI-H23.
Test [12] has as its system SF-268.
Test [13] concerns HOP-62.
The subject of test [14] is IGROV-1.
Test [15] concerns HT-29.
The test system of test [16] is CCRF-CEM.
For test [17], the system named is LOX IMVI.

We go through five compounds from ChEMBL document CHEMBL1201862, “PubChem BioAssay data set” (2004).

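Five compound concentrations were applied to cells in 96-well plates for 48 hours; endpoints were derived by simple linear interpolation of the resulting dose-response curve. The concentration for 50% growth inhibition is given as GI50.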 Activity calls are given as the source filed them. Cut-off read from the data, not from the text of the source: active = GI50 up to about 1.1 µM and inactive = higher.

On to `CSc1nc(-c2ccccc2)[nH]c(=O)n1`, for which the GI50 in test [1] is above 100 µM; in test [2], > 100 µM (inactive); in [3], > 100 µM (inactive); in test [4], > 100 µM (inactive); in [5] it was > 100 µM (inactive); in test [6], > 100 µM (inactive). The GI50 in test [7] is 59 µM (inactive); in test [8], 54.5 µM (inactive); in test [9], > 100 µM (inactive); in test [10], > 100 µM (inactive); in test [11], > 100 µM (inactive); in [12], > 100 µM (inactive). Moreover, the GI50 in test [13], in test [14], in [15] and in [16] was > 100 µM (inactive) each time.

As for `CC1C2=C(O)CC(C)(C)CC2=NC2=C1C(=O)CC(C)(C)C2` (configuration not stated), the GI50 in [1] was above 100 µM; in test [17] it was > 100 µM (inactive); in [2], > 100 µM (inactive); in [3], > 100 µM (inactive); in test [4], > 100 µM (inactive); in test [5], > 100 µM (inactive). Besides, the GI50 in [6], in test [8], in test [9], in test [11], in test [12] and in test [14] was > 100 µM (inactive) each time. Also, the GI50 in test [15] and in test [16] was > 100 µM (inactive) each time.

Take `CN(C)C1(N(C)C)Oc2c(c(=O)n(C)c(=O)n2C)C(c2ccc(C(F)(F)F)cc2)C1(F)F` (configuration not stated): the GI50 in test [1] was above 100 µM; in test [17] it was > 100 µM (inactive); in [3], > 100 µM (inactive); in test [4] it was > 100 µM (inactive); in [5], > 100 µM (inactive); in test [6], > 100 µM (inactive). Also, the GI50 in test [9], in test [10], in test [11], in test [12], in test [13] and in test [16] was > 100 µM (inactive) throughout.

Regarding `COC(=O)C1c2cc3c(c(O)c2CCC1(C)O)C(=O)c1c(O)cc2c(c1C3=O)OC1OC2(C)C(O)C(N(C)C)C1O` (configuration not stated), the GI50 was 0.394 µM in test [1]; 0.226 µM (active) in [17]; 0.543 µM (active) in test [2]; 0.0112 µM (active) in test [3]; 3.15 µM (inactive) in test [4]; 0.14 µM (active) in test [5]. Besides, the GI50 was 0.158 µM (active) in [6]; 0.162 µM (active) in test [7]; 1.36 µM (inactive) in [8]; 0.385 µM (active) in test [9]; 0.205 µM (active) in test [10]; 0.562 µM (active) in test [11]. Besides, the GI50 was 0.906 µM (active) in test [12], 0.254 µM (active) in test [13], 1.02 µM (active) in test [14] and 0.205 µM (active) in [15].

With `COc1ccc(/C=N/CCC/N=C/c2ccc(OC)cc2O)c(O)c1`, the GI50 in [1] is 37.5 µM; in [2], 26.1 µM (inactive); in [3] it was 16.7 µM (inactive); in test [4], 41 µM (inactive); in [5] it was 57.9 µM (inactive); in test [6], 36.8 µM (inactive). Further, the GI50 in [7] was 23.8 µM (inactive); in [8], 39.9 µM (inactive); in [10], > 100 µM (inactive); in [11] it was > 100 µM (inactive); in [13], > 100 µM (inactive); in [14], 43.4 µM (inactive). Besides, the results for the GI50 in test [15] and in test [16] were 97.3 µM (inactive) and 29.6 µM (inactive), respectively.
